In this experiment the target is T1, HIV Reverse transcriptase (RT) 66/p51 (Human immunodeficiency virus type 1 group M subtype B, UniProt P04585).
T1 construct: HIV Reverse transcriptase (RT) 66/p51; purchased Worthington
As to the kind of experiment: RNA dependent DNA polymerase (RDDP) activity of HIV RT, 33P-TTP incorporation on polyrA-oligodT12-18, filter plate. The class given is biochemical.

Compound `Cc1cn([C@H]2C[C@H](N=[N+]=[N-])[C@@H](CO)O2)c(=O)[nH]c1=O` [AZT] displayed an IC50 below 200 nM.

Usually IC50 stands for the concentration at which inhibition is half-maximal. Read a low IC50 as greater potency in that assay.

For the origin of these results see patent US7553967B2, “1,2-Dihydroquinoline derivatives and method for using the same to treat HIV infections” (Wyeth, priority 2004, dated 2009).
